Test results reported in ChEMBL document CHEMBL4265895, “Novel inhibitors of As(III) S-adenosylmethionine methyltransferase (AS3MT) identified by virtual screening” (Bioorg Med Chem Lett, 2018).

Columns and labels:
[1] = molecular target: T1, Histone-lysine N-methyltransferase NSD2 (Homo sapiens, UniProt O96028); assay: Inhibition of full-length NSD2 (unknown origin) using HeLa oligonucleosome as substrate preincubated for 15 mins followed by substrate addition measured after 45 mins in presence of SAM by MTaseGlo assay
T1 sequence (O96028 whole entry): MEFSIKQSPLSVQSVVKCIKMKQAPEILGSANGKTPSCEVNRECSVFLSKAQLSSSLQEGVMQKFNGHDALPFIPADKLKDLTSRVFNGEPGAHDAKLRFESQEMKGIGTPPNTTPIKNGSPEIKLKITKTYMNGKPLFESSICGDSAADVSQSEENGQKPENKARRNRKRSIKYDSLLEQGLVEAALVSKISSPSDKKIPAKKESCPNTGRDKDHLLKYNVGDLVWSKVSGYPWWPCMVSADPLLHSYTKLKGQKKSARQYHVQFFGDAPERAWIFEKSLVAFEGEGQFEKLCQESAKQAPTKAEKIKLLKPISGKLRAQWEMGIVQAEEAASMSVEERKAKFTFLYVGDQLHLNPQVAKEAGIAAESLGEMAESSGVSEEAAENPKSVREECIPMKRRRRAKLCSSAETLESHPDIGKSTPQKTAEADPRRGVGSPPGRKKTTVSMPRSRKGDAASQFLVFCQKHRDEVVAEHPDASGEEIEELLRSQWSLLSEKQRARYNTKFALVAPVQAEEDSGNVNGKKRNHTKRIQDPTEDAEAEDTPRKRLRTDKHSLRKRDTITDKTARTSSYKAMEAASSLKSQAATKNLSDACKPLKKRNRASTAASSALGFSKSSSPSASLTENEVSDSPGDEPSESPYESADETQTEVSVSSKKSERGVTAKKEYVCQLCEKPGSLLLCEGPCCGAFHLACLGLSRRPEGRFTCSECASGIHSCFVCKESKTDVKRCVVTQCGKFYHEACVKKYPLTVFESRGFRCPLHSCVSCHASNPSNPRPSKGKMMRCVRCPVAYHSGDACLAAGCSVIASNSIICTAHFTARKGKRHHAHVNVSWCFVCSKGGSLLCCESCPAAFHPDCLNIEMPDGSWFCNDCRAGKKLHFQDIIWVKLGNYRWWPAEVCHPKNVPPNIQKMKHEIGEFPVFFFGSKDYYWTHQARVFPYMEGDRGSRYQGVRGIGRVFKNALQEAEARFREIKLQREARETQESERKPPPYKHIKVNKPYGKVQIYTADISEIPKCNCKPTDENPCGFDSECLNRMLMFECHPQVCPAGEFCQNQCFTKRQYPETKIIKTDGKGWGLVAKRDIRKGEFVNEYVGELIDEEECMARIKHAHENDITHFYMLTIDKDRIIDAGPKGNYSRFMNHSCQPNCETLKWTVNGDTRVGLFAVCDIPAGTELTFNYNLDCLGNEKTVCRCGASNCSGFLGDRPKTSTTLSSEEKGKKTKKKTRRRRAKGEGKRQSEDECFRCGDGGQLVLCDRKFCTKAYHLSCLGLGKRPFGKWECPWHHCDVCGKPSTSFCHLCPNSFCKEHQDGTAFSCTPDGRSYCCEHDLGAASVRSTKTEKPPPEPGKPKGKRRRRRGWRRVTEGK

[2] = molecular target: T2, Arsenite methyltransferase (Homo sapiens, UniProt Q9HBK9); assay: Inhibition of human AS3MT using NaAsO2 as substrate preincubated for 30 minutes followed by substrate addition measured after 90 mins in presence of SAM
T2 sequence (Q9HBK9 whole entry): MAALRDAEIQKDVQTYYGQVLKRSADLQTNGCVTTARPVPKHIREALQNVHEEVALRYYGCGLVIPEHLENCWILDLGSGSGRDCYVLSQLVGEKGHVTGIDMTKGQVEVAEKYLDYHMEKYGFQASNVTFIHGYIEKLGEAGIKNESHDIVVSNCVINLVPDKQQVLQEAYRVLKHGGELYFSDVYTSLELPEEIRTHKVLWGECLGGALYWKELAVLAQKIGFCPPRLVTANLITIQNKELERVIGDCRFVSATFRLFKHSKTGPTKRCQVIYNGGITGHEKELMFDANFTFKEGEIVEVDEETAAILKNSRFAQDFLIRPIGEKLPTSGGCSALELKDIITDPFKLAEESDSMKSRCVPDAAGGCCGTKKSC

[3] = molecular target: Histone-lysine N-methyltransferase, H3 lysine-79 specific (Homo sapiens, UniProt Q8TEK3); assay: Inhibition of full-length DOT1L (unknown origin) using HeLa oligonucleosome as substrate preincubated for 15 mins followed by substrate addition measured after 45 mins in presence of SAM by MTaseGlo assay
Sequence of Histone-lysine N-methyltransferase, H3 lysine-79 specific (Q8TEK3 whole entry): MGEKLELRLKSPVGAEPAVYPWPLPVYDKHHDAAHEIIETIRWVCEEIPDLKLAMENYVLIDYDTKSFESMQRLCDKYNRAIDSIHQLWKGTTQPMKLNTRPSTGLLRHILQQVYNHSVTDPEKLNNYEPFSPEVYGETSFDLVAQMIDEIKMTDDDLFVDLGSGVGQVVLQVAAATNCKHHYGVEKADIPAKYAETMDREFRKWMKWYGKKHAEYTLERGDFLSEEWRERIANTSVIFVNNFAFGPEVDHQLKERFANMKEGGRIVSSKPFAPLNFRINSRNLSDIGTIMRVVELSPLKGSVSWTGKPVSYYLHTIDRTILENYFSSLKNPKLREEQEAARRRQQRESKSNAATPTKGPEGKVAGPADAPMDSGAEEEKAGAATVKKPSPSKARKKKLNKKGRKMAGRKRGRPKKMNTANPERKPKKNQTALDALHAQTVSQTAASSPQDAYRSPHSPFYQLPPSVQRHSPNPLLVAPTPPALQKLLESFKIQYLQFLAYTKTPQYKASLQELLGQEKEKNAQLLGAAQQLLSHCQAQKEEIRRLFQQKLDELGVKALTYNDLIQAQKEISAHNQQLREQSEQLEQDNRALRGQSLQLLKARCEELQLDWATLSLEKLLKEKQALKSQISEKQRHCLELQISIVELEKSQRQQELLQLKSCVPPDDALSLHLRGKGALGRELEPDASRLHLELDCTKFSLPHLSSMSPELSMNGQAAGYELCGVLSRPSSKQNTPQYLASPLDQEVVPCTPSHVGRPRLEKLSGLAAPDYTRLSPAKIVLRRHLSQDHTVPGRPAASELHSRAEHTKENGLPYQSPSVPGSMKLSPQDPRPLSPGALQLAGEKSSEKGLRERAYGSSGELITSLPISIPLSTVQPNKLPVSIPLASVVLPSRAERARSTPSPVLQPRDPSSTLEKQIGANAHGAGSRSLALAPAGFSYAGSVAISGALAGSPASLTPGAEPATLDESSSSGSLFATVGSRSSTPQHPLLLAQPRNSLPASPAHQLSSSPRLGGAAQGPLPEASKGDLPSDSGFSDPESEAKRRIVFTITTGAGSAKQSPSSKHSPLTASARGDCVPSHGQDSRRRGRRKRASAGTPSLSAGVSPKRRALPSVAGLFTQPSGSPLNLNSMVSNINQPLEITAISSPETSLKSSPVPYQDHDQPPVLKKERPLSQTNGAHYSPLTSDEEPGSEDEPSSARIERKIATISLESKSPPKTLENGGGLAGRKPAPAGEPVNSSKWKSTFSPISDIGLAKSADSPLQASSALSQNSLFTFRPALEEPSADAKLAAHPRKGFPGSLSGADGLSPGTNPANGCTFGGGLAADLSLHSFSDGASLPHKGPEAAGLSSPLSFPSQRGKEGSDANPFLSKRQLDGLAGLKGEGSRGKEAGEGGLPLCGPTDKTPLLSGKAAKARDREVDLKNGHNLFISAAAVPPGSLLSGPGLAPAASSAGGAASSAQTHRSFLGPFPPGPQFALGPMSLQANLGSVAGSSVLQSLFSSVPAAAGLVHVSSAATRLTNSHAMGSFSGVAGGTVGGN

## N#Cc1c(N)[nH]c2ccc(Oc3ccc(NC(=O)[C@@H](N)CO)cc3)cc12
[1]
  IC50: 11 µM
[2]
  IC50: 3 µM
[3]
  IC50: > 100 µM

## N#Cc1c(N)n(CC(N)=O)c2ccc(Oc3ccc(NC(=O)CN)cc3)cc12
[2]
  IC50: 20 µM

## Cn1c(N)c(C#N)c2cc(Oc3ccc(NC(=O)CN)cc3)ccc21
[1]
  IC50: 47 µM
[2]
  IC50: 3.3 µM
[3]
  IC50: > 100 µM

## N#Cc1c(N)[nH]c2ccc(Oc3ccc(NC(=O)[C@H](N)CO)cc3)cc12
[1]
  IC50: 9.1 µM
[2]
  IC50: 5 µM
[3]
  IC50: > 100 µM

## Cn1c(N)c(C#N)c2cc(OCc3cccc(NC(=O)C(N)CO)c3)ccc21 (centres undefined)
[2]
  IC50: 2.9 µM

## CN(C)C(=O)Cn1c(N)c(C#N)c2cc(Oc3ccc(NC(=O)CN)cc3)ccc21
[2]
  IC50: 8.3 µM

## CCn1cc(C#N)c2cc(Oc3ccc(NC(=O)CN)cc3)ccc21
[2]
  IC50: > 100 µM

## CC(C)(C)C(=O)Nc1[nH]c2ccc(OCc3ccccc3)cc2c1C#N
[2]
  IC50: > 100 µM

## N#Cc1c(N)[nH]c2ccc(OCc3ccccc3)cc12
[1]
  IC50: 49 µM
[2]
  IC50: 3.6 µM
[3]
  IC50: > 100 µM

## Cn1c(N)c(C#N)c2cc(OCc3ccccc3)ccc21
[1]
  IC50: > 100 µM
[2]
  IC50: 13.6 µM
[3]
  IC50: > 100 µM

## CCn1c(N)c(C#N)c2cc(Oc3ccc(NC(=O)CN)cc3)ccc21
[1]
  IC50: 12 µM
[2]
  IC50: 1.8 µM
[3]
  IC50: 99 µM

## N#Cc1c(N)n(CC2CC2)c2ccc(Oc3ccc(NC(=O)CN)cc3)cc12
[1]
  IC50: 5.8 µM
[2]
  IC50: 1.5 µM
[3]
  IC50: 96 µM

## Cn1c(N)c(C#N)c2cc(OCc3cccc(N)c3)ccc21
[1]
  IC50: > 100 µM
[2]
  IC50: 1.4 µM
[3]
  IC50: > 100 µM
